According to ChEMBL document CHEMBL1139383, “Carbonic anhydrase inhibitors. Comparison of chlorthalidone and indapamide X-ray crystal structures in adducts with isozyme II: when three water molecules and the keto-enol tautomerism make the difference” (J Med Chem, 2009):
pKi: −log10 of the molar value.

Molecular target: Carbonic anhydrase 3 (Homo sapiens) (UniProt P07451)
Sequence (P07451 whole entry): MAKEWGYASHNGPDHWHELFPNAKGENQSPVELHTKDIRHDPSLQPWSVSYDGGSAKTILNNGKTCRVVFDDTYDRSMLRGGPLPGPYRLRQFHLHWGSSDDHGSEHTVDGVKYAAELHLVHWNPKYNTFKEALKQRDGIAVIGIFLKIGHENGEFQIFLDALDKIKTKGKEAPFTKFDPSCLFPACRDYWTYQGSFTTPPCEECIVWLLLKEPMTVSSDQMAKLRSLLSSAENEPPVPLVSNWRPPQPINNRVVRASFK
Description: Inhibition of human recombinant CA3 by stopped flow CO2 hydration assay

Q: With `NS(=O)(=O)c1cc(C2(O)NC(=O)c3ccccc32)ccc1Cl` (stereo unspecified) as the compound, how does the pKi read?
A: The pKi was 4.96.
